Test results: ChEMBL document CHEMBL1201862, “PubChem BioAssay data set” (2004)
Calls of active or inactive are those of the source.

How the values were obtained:
[1] = tested on: BJ; experiment: BJ-TERT-LT-ST fibroblast viability loss – cell-based, RAS-independent, luminescence, dose response (AID 1935); format: functional; conditions: Homo sapiens;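 note: BJ fibroblasts immortalized with TERT plus LT and ST oncogenes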
[2] = tested on: BJ; experiment: cells; format: functional, cell-based; conditions: Homo sapiens
[3] = tested on: BJ; experiment: BJ-TERT fibroblast viability loss – cell-based, RAS-independent, luminescence, dose response (AID 1933); format: functional; conditions: Homo sapiens
[4] = DRD fibroblast viability loss – cell-based, non-viral oncogenic, luminescence, dose response (AID 1934); format: functional; conditions: Homo sapiens
[5] = target: Genome polyprotein (dengue virus type 2, UniProt P29990); experiment: flavivirus cap methylation enzyme inhibition – biochemical, confirmation dose response, primary screen (AID 588689); format: functional
Genome polyprotein, sequence (P29990 2492-3391 limits assumed): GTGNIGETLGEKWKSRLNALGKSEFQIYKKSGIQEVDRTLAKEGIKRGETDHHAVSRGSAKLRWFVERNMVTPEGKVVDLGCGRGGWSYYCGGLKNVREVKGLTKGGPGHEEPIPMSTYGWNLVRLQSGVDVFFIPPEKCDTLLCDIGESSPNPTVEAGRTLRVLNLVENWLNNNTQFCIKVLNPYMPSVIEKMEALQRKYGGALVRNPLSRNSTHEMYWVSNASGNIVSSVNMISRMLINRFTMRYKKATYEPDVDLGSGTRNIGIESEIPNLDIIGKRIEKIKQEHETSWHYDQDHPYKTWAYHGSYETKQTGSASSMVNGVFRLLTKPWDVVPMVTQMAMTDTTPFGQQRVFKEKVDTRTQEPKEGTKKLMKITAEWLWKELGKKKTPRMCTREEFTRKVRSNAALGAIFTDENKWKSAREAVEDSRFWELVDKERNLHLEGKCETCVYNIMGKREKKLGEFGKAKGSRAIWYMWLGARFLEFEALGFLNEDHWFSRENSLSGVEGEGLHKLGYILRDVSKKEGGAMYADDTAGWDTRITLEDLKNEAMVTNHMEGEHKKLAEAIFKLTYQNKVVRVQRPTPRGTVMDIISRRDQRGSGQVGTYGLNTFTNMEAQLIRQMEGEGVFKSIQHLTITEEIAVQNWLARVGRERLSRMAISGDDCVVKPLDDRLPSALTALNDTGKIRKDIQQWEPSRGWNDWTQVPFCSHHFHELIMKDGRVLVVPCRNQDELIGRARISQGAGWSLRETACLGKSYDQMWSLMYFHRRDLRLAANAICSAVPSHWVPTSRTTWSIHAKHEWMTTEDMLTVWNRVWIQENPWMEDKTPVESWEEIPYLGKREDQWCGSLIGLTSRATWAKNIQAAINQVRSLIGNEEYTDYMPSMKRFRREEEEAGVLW

[6] = Trypanosoma cruzi growth suppression in host cells – NIH3T3 host cells, beta-gal luminescence, confirmation (AID 2044); format: functional, cell-based;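 note: intracellular parasites grown in NIH/3T3 mouse fibroblasts as host cells; luminescent beta-galactosidase reporter signal from transgenic T. cruzi replicating inside host cells; inhibitors lower the luminescence signal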
[7] = target: T1, Fatty acid synthase (Homo sapiens, UniProt P49327); experiment: inhibition of human FAS-TE enzyme activity – biochemical, endpoint fluorescence intensity, uHTS hits, dose response (AID 624327); format: functional;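 note: fluorescence from hydrolysis of an O-methyl fluorescein acyl ester substrate by the enzyme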
T1 sequence (P49327 whole entry): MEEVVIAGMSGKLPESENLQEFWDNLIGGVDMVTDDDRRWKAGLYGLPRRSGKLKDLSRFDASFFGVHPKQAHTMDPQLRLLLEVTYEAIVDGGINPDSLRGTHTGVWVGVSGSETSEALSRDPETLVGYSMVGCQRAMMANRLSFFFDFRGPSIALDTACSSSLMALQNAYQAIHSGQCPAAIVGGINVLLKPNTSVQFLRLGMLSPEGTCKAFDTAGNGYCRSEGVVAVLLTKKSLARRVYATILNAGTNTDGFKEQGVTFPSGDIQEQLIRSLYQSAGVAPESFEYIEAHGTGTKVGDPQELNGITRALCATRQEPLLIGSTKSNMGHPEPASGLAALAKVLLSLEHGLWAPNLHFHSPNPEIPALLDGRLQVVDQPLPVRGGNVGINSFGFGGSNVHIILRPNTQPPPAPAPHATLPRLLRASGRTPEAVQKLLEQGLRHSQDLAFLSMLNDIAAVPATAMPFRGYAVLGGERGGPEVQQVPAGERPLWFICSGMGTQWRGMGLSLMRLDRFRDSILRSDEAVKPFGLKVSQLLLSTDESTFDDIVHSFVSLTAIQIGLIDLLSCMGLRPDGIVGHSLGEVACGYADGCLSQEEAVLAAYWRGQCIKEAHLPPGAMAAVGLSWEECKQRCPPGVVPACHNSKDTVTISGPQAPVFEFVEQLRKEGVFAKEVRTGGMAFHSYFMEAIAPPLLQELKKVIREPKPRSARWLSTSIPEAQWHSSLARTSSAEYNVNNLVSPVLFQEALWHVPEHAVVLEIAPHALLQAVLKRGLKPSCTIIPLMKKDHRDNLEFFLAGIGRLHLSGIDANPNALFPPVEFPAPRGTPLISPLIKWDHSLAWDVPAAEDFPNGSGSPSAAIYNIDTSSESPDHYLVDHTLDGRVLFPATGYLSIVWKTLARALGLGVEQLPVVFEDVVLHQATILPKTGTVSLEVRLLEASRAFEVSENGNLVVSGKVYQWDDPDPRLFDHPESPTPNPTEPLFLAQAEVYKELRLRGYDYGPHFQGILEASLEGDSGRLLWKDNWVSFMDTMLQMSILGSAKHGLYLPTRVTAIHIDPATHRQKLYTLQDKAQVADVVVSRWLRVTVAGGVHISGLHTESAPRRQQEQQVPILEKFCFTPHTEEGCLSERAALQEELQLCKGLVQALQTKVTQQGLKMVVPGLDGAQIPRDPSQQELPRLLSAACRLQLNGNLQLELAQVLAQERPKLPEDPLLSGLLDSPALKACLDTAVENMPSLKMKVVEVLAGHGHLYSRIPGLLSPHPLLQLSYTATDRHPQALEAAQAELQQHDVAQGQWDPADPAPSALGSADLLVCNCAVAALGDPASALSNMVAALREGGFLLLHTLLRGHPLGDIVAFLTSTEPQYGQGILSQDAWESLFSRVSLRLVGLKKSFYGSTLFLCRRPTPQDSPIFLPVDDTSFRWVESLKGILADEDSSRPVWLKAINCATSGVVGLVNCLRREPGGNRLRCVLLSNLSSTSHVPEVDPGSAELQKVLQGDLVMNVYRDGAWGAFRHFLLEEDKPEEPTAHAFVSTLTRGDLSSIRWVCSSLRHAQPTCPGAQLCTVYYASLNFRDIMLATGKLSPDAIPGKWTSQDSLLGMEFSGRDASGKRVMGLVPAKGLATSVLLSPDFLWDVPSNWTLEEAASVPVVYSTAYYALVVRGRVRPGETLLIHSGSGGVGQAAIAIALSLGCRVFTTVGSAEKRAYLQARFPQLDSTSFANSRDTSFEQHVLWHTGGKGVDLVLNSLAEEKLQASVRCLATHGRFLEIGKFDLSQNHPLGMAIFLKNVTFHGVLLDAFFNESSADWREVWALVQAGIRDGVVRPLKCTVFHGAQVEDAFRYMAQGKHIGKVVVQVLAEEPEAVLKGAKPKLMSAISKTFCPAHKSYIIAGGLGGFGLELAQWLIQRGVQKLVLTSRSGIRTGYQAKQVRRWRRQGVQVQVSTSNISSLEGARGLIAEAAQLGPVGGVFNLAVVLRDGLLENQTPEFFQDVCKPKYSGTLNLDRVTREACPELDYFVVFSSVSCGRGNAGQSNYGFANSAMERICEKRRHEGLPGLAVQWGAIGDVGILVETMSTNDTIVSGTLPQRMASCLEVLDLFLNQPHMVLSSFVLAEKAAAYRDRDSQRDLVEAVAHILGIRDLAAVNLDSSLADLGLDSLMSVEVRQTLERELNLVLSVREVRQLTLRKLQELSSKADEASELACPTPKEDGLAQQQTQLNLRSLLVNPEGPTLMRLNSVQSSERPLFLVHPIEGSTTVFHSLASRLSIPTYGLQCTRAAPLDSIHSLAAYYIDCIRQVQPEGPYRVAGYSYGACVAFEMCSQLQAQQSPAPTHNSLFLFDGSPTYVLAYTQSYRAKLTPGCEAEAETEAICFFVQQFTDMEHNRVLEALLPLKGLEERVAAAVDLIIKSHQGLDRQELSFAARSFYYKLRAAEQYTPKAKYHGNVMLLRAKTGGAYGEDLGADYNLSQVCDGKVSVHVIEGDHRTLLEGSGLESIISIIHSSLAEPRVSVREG

[8] = NIH3T3 cell viability loss – ATP luminescence, mouse fibroblasts, counter-screen, dose response (AID 2010); format: functional, cell-based;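 note: cells exposed to compound for about 90 hours before reading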
[9] = target: T1, Fatty acid synthase; experiment: inhibition of human FAS-TE enzyme activity – biochemical, kinetic fluorescence intensity, dose response (AID 624326); format: functional;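 note: rate of fluorescence rise from hydrolysis of a fluorogenic O-methyl fluorescein ester substrate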
[10] = target: T2, Replicative DNA helicase DnaB (Mycobacterium tuberculosis, UniProt P9WMR3); experiment: DnaB intein splicing inhibitors, dose response, biochemical, cell-free fluorescence (AID 449749); format: functional
T2 sequence (P9WMR3 whole entry): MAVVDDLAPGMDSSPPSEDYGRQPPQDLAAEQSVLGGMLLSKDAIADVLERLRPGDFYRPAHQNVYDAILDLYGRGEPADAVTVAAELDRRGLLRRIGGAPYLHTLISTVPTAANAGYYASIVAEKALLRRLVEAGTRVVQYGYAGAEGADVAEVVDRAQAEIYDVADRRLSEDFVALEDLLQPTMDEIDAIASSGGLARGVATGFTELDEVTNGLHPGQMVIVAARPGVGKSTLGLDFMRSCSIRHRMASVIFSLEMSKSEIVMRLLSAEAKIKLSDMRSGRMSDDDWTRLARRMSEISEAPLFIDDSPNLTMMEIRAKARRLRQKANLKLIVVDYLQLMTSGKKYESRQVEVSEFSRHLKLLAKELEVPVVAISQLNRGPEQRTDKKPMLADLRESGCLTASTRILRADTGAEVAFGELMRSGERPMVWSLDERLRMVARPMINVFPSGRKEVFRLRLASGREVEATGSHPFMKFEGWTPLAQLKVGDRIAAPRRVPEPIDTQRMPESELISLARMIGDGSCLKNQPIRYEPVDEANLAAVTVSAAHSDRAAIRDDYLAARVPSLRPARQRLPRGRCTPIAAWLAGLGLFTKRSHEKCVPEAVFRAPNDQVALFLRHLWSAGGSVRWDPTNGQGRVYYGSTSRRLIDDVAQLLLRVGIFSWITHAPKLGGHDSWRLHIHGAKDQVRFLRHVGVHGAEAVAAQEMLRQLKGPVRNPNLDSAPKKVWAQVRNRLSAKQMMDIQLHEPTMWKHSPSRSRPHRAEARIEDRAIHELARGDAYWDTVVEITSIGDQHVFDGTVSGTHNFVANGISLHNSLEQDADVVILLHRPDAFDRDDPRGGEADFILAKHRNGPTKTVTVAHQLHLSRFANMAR

[11] = target: T3, Protein RecA (Mycobacterium tuberculosis, UniProt P9WHJ3); experiment: Fluorescence Cell-Free Homogeneous Dose Retest to Identify Inhibitors of RecA-Intein Splicing Activity. [Related pubchem assays (depositor defined):AID2097, AID2223, AID489010, AID492950]; format: functional
T3 sequence (P9WHJ3 whole entry): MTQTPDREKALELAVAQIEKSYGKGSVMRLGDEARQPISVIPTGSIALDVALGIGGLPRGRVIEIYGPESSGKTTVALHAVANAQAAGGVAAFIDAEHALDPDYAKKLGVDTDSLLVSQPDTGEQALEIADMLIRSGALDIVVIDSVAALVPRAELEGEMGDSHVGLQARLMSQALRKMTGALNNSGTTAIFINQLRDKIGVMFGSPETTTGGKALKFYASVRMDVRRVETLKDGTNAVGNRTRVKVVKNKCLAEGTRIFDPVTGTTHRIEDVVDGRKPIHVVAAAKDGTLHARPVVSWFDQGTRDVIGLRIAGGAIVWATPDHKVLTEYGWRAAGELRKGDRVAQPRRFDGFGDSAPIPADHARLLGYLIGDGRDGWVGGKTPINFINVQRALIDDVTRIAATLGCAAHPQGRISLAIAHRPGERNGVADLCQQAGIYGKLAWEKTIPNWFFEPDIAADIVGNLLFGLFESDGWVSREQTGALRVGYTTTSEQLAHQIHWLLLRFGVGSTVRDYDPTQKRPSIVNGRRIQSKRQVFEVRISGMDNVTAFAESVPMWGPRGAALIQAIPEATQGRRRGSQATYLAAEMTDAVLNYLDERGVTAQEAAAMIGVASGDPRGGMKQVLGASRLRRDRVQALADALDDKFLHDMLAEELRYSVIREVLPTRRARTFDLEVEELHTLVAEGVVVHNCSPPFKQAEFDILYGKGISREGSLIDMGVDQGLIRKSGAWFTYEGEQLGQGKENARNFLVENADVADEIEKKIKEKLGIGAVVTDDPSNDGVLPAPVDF

[12] = blockers of HIV-1 ZM109 envelope-driven cell-cell fusion – HeLa effector, CEM target cells, luciferase, cherry-pick, dose response (AID 652058); format: functional, cell-based;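 note: luciferase signal from HIV-1 Env mediated cell-cell fusion of effector and target cells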
[13] = off-target signal loss in HeLa-CEM21 co-culture – HeLa F-luc CTL cells, cherry-picked, counter-screen for HIV-1 Env fusion inhibitor project, dose response (AID 652040); format: functional, cell-based;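 note: potency for signal decrease marking cytotoxic or nonspecific inhibition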
[14] = HIV-1 AD8 envelope cell-cell fusion blockers – cherry-pick, dose response (AID 652062); format: functional, cell-based;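 note: luciferase signal from cell-cell fusion driven by HIV-1 clade B AD8 Env; potency is for inhibitors of fusion seen as a drop in luminescence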
[15] = blockers of HIV-1 envelope-mediated cell-cell fusion – cherry-pick, dose response (AID 652057); format: functional, cell-based
[16] = cells; format: functional, cell-based
[17] = cells; format: functional, cell-based; remark: listed apart in the source
[18] = target: Induced myeloid leukemia cell differentiation protein Mcl-1 (Homo sapiens, UniProt Q07820); format: functional
Induced myeloid leukemia cell differentiation protein Mcl-1, sequence (Q07820 whole entry): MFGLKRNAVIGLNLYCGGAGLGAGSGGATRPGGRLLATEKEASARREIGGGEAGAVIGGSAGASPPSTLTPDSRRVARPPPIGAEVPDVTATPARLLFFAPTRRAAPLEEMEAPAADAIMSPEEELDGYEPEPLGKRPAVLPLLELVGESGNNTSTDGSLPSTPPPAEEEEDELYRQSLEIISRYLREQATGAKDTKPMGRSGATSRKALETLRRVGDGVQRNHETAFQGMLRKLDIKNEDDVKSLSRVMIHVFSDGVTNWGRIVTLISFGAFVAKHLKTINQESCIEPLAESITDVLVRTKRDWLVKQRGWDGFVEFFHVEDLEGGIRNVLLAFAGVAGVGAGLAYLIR

[19] = target: Nonstructural protein 1 (Influenza A virus, UniProt Q194T2); format: functional, Influenza A virus (A/California/07/2009(H1N1))
Nonstructural protein 1, sequence (Q194T2 whole entry): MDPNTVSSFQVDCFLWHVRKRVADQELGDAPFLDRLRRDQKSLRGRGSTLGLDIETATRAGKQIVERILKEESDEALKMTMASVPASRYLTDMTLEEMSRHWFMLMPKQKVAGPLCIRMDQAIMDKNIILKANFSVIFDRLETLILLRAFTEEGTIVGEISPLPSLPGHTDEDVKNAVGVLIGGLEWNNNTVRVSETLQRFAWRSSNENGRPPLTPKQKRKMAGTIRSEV

[20] = target: T4, Heat shock factor protein 1 (Mus musculus, UniProt P38532); experiment: decrease of HSF1-responsive luciferase luminescence – cell-based, NIH3T3, dose retest, confirmation (AID 2382); format: functional;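 note: NIH3T3 fibroblasts with HSF1-driven luciferase reporter stressed by proteasome inhibitor MG132; luminescence from HSF1-driven luciferase expression after 8 hours of MG132 stress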
T4 sequence (P38532 whole entry): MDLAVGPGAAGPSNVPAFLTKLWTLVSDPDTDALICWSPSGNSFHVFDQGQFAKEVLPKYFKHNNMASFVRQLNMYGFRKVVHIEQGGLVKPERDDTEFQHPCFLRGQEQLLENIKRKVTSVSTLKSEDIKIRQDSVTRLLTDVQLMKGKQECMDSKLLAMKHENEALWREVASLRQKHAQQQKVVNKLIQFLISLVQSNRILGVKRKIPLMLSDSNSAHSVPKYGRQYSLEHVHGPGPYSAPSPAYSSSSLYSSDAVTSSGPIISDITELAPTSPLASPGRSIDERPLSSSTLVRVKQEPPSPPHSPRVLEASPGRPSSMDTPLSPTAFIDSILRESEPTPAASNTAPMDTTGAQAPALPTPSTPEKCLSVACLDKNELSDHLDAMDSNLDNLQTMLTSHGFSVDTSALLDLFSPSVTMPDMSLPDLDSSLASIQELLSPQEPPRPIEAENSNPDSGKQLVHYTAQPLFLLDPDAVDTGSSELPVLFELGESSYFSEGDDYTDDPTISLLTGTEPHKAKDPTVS

[21] = target: FAD-linked sulfhydryl oxidase ALR (Homo sapiens, UniProt P55789); experiment: ALR-catalysed DTT oxidation blockers – biochemical, H2O2 detection, luminescence, cherry-pick, dose response (AID 493248)
FAD-linked sulfhydryl oxidase ALR, sequence (P55789 whole entry): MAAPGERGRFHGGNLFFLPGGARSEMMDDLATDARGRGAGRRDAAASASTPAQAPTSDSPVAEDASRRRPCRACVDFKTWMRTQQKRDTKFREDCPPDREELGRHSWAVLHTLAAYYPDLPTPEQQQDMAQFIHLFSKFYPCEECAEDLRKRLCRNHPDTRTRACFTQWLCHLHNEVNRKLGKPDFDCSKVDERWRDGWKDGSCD

## COC(=O)Cn1c(=O)c(C(=O)CCl)c(N)n(Cc2ccccc2)c1=O
[1]
  EC50: 16.3 µM (inconclusive)
[2]
  EC50: 7 µM (active)
[3]
  EC50: 0.797 µM (active)
[4]
  EC50: 4.86 µM (inconclusive)

## O=C(O)/C=C/C(=O)c1c(-c2ccccc2)[nH]c2ccccc12
[5]
  IC50: > 100 µM (active)

## O=C(Cn1cnc2cc([N+](=O)[O-])ccc2c1=O)Nc1ccc2c(c1)OCO2
[6]
  EC50: 2.31 µM (active)
[7]
  IC50: 4.19 µM (active)
[8]
  EC50: > 60 µM (not active)
[9]
  IC50: 3.65 µM (active)

## O=C1NC(=O)C(=Cc2cc(Cl)ccc2OCc2ccc(C(=O)O)cc2)C(=O)N1
[5]
  IC50: 20.7 µM (active)

## CCc1ccccc1N1C(=O)C(Cl)=C(N2CCOCC2)C1=O
[5]
  IC50: 83.2 µM (active)
[10]
  AC50: 6.57 µM (active)
[11]
  EC50: 4.01 µM (active)

## CC(NC(=O)CN(C)CC(=O)Nc1ccc(Cl)c(C(F)(F)F)c1)c1ccccc1 (centres undefined)
[12]
  AC50: 8.39 µM (active)
[13]
  AC50: 15.7 µM (active)
[14]
  AC50: 14.9 µM (active)
[15]
  AC50: 4.06 µM (active)

## COC(=O)Nc1ccc(S(=O)(=O)N(C)C)cc1
[16]
  EC50: > 350 µM (not active)
[17]
  EC50: > 350 µM (not active)

## CC(C)OC(=O)/C(C#N)=C/c1cn(C)c2ccccc12
[7]
  IC50: 13.8 µM (active)
[9]
  IC50: 11.1 µM (active)

## COc1cccc(-n2c(SCC(=O)N3CCOCC3)nc3c4ccccc4nc-3c2O)c1
[16]
  EC50: > 350 µM (not active)
[17]
  EC50: > 350 µM (not active)

## Cc1cccc(NC(=O)C2CCN(S(=O)(=O)c3ccc4c(c3)OCCCO4)CC2)n1
[13]
  AC50: 42.2 µM (active)
[14]
  AC50: 13.1 µM (active)
[15]
  AC50: 66.2 µM (active)

## C=CCOC(=O)/C(=C\c1ccccc1)NC(=O)c1ccc(C)cc1
[18]
  IC50: 2.49 µM (not active)

## CC(C)C(=O)Nc1sc2c(c1C(N)=O)CCN(Cc1ccccc1)C2
[1]
  EC50: > 150 µM (not active)
[2]
  EC50: > 150 µM (not active)
[3]
  EC50: > 150 µM (not active)
[4]
  EC50: 47.8 µM (active)

## O=C1ON=C(c2ccc([N+](=O)[O-])cc2)/C1=C/c1ccccc1O
[5]
  IC50: 32.4 µM (active)

## COc1ccc(C(=O)Nn2c(SCc3cccc([N+](=O)[O-])c3)nc3ccccc3c2=O)cc1
[7]
  IC50: 17.5 µM (active)
[9]
  IC50: 14.3 µM (active)

## CCN(CC)c1nc(Nc2ccccc2)nc(Oc2ccc(O)nn2)n1
[12]
  AC50: 9.89 µM (active)
[13]
  AC50: 5.99 µM (active)
[14]
  AC50: 9.57 µM (active)
[15]
  AC50: 6.13 µM (active)

## COc1ccc2cc(C(C)C(=O)N3CCC(C(N)=O)CC3)ccc2c1 (centres undefined)
[16]
  EC50: > 350 µM (not active)
[17]
  EC50: > 350 µM (not active)

## Cc1ccc(S(=O)(=O)NCc2ccc3c(c2)cc(C)n3C)cc1
[6]
  EC50: 3.2 µM (active)
[8]
  EC50: > 60 µM (not active)
[19]
  IC50: 86.6 µM (active)

## CC(=O)Nc1ccc2c(c1)CCCC2=O
[16]
  EC50: > 350 µM (not active)
[17]
  EC50: > 350 µM (not active)

## COc1ccc(/C=C(\C#N)c2nc3ccccc3[nH]2)cc1O
[16]
  EC50: > 350 µM (not active)
[17]
  EC50: 8.05 µM (active)

## O=C(Nc1ncc2c(n1)-c1ccccc1OC2)c1cccc([N+](=O)[O-])c1
[7]
  IC50: 9.93 µM (active)
[9]
  IC50: 13 µM (active)

## CC(CCc1ccccc1)NC(=O)c1cccc([N+](=O)[O-])c1 (centres undefined)
[20]
  EC50: > 195 µM (not active)
[7]
  IC50: 6.29 µM (active)
[9]
  IC50: 7.07 µM (active)

## O=C(CCN1C(=O)/C(=C/c2ccccc2Cl)SC1=S)Nc1ccccn1
[7]
  IC50: 6.7 µM (active)
[9]
  IC50: 1.96 µM (active)

## O=C(C[C@H]1C[C@H](C(=O)N2CCOCC2)[C@@]2(CCC3CCCC3)c3[nH]c4ccc(Cl)cc4c3CCN2C1=O)NCCc1ccccn1
[7]
  IC50: 1.03 µM (active)
[9]
  IC50: 1.15 µM (active)

## Cc1ccc(C(=O)Nc2ccccc2C(=O)O)cc1S(=O)(=O)Nc1ccc(Br)cc1
[5]
  IC50: 49.8 µM (active)
[21]
  AC50: 628 nM (active)

## C=C1CCN([C@@H](CC(C)C)C(=O)Nc2ccc(OC)cc2)S(=O)(=O)c2ccccc21
[12]
  AC50: 2.47 µM (active)
[13]
  AC50: 4.03 µM (active)
[14]
  AC50: 3.63 µM (active)
[15]
  AC50: 2.12 µM (active)

## Cc1cc(C(=O)N/N=C/c2cc([N+](=O)[O-])cc(C)c2O)[nH]n1
[9]
  IC50: 11.8 µM (active)
[19]
  IC50: 8.76 µM (active)
